Data published in patent US11814371B2, “Heterocyclic compound” (MEDSHINE DISCOVERY INC., priority 2020, dated 2023).
pIC50: −log10 of the molar value. Structures can show the parent of a compound that is named as a salt. Where two headings read alike, the source gives them in different places.

Key:
[1] = target: T1, recombinant human plasma kallikrein (Human PKal) (Homo sapiens, UniProt P03952); experiment: Inhibitory effect of test compounds on plasma kallikrein (PKal), fluorogenic substrate Z-FR-AMC; assay type: biochemical; details: 10 µM Z-FR-AMC, 10 min pre-incubation
T1 construct: Gly20-Ala638 derived from NS0- with a 60-His appendage at the C-terminus; His tag ('60-His' [sic]) (C); purchased R&D Systems 2497-SE; host or cells: mouse myeloma cell line NS0
T1 sequence (P03952 20-638): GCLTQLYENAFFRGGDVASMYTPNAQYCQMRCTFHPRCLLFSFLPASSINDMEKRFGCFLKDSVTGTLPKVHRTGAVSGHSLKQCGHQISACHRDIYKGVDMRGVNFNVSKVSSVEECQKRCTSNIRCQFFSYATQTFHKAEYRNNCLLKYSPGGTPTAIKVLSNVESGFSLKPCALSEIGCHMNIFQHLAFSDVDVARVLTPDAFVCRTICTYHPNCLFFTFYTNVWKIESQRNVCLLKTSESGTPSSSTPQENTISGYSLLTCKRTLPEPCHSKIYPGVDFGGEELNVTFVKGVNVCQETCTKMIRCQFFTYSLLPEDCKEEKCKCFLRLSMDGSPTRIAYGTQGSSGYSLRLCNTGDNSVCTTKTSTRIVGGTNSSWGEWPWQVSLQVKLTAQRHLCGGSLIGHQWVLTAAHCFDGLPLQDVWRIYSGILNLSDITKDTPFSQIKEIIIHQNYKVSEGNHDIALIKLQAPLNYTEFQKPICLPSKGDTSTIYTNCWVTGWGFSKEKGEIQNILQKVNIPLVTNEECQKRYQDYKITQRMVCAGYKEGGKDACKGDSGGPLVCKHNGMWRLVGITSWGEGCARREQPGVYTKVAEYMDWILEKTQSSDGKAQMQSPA
Experimental: 1. PKal reaction buffer: 25 mM Tris-HCl (trometamol-HCl), pH 8.0, 100 mM NaCl, […], 0.01 % Brij35 (polyoxyethylene lauryl ether), and 1 % DMSO (final concentration).
2. Enzyme: PKal (R&D Systems Cat# 2497-SE), recombinant human plasma kallikrein expressed in a mouse myeloma cell line, Gly20-Ala638 derived from NS0- with a 60-His appendage at the C-terminus, MW=70 kDa. Activation of the enzyme: (1) rhPKal was diluted to 200 µg/mL activation buffer (100 mM Tris, 10 mM CaCl2, 150 mM NaCl, pH 7.5 (TCN)); (2) thermolysin was diluted to 20 µg/mL activation buffer; (3) rhPKal (200 µg/mL) and thermolysin (20 µg/mL) were mixed in equal volumes; (4) the mixture was incubated at 37° C. for 30 min; (5) then the reactions was stopped with 50 µM EDTA (ethylenediaminetetraacetic acid).
3. Substrate (Enzo Cat# P-139): 10 µM Z-FR-AMC (AMC: 7-amino-4-methylcoumarin).
4. Detection: EnVision (PE), Ex/Em 355/460 nm.
5. Reaction process: (1) The specified enzymes and substrates were prepared in freshly prepared activation buffer; (2) the enzyme solution was injected into the reaction hole; (3) the DMSO solution of the test compound was injected into the reaction mixture, and controlled within the nanoliter range using acoustic technology (Echo 550, LabCyte Inc. Sunnyvale, CA); (4) after 10 min of pre-incubation, the substrate solution was injected into the reaction hole to start the reaction; (5) the activity of the enzyme could be indicated by the increase of the fluorescence signal of the fluorescent labeled peptide substrate, which was monitored every 5 min and lasted for 120 min at room temperature; (6) data analysis: the slope* (fluorescence signal/time) of the straight line was measured, then the slope could be calculated by excel and the curve could be fitted by Prism software.

[2] = Pharmacokinetic test in rats after intravenous and intragastric administration (plasma, LC-MS/MS); assay type: in vivo; details: male, SD, rat; for bioavailability: read-out: Bioavailability F; for AUC(0-inf): read-out: Curve area (o-inf) AUC0-inf; for AUC(0-t): read-out: Curve area (o-t) AUC0-last; for half-life: read-out: Half-life T½ (converted); for Tmax: read-out: Peak time Tmax; for Cmax: read-out: Plasma drug concentration Cmax; for Vd: read-out: Apparent volume of distribution Vdss; for clearance: read-out: Clearance rate Cl
Experimental: Male SD rats were used as test animals, and LC-MS/MS method was used to determine the drug concentrations in plasma of rats at different times after intravenous and intragastric administration of test compounds. The pharmacokinetic behaviors of the compounds in rats were studied and the pharmacokinetic characteristics were evaluated.
2.2 Test animals: 28 healthy adult male SD rats were divided into 14 groups with 2 rats in each group. Animals were purchased from Beijing Vital River Laboratory Animal Technology Co., Ltd.
(§1) An appropriate amount of sample was weighed, and an appropriate amount of DMSO, polyoxyethylene castor oil and sterile water for injection were added in sequence according to the volume ratio of 10:10:80, then the mixture was stirred and sonicated to reach a clear state of 0.5 mg/mL for intravenous administration.
as §1, with “clear or suspension” for “clear”, “0.4” for “0.5”, “intragastric” for “intravenous”
as §1, with “3” for “0.5”
2.4 Administration: 28 male SD rats were divided into 14 groups, after fasting for one night, the intravenous administration group was administered with an administration volume of 2 mL/kg and a dose of 1 mg/kg; the intragastric administration group 1 was administered with an administration volume of 5 mL/kg and a dose of 2 mg/kg. The intragastric administration group 2 was administered with an administration volume of 10 mL/kg and a dose of 30 mg/kg.
After the compound was administered intravenously to male SD rats, 40 µL of blood was collected at 0.0833, 0.25, 0.5, 1, 2, 4, 8 and 24 hours, respectively, and placed in tubes containing 2 µL of EDTA-K2. After the compound was administered in the intragastric administration group, 40 µL of blood was collected at 0.25, 0.5, 1, 2, 4, 6, 10 and 24 hours, respectively, and placed in tubes containing 2 µL of EDTA-K2. The tubes were centrifuged at 4000 rpm for 15 minutes to separate the plasma, and stored at -60° C. Animals were allowed to eat 2 hours after administration.
LC-MS/MS method was used to determine the content of the test compounds in the plasma of rats after intravenous and intragastric administration. The linear range of the method was 2.00 - 6000 nmol/L; plasma samples were treated with acetonitrile to precipitate protein, and then analyzed.

[3] = po, intragastric administration (group 1), nominal 2 mg/kg (actual dose in c2)
[4] = intravenous administration, nominal 1 mg/kg (actual dose in c2)
[5] = po, intragastric administration (group 2), nominal 30 mg/kg (actual dose in c2)

SMILES | pIC50 [1] | AUC(0-inf) [2, 3] [µM·h] | AUC(0-t) [2, 3] [µM·h] | half-life [2, 3] [min] | Tmax [2, 3] [min] | Cmax [2, 3] [nM] | other results
COc1ccnc(CNC(=O)c2cn(Cc3ccc(Cn4cc(F)ccc4=O)c(F)c3)nc2C2COC2)c1F [Hydrochloride of compound 18] | 8.64 |  |  |  |  |  | 
COc1ccnc(CNC(=O)c2cn(Cc3ccc(Cn4cc(F)ccc4=O)cc3)nc2C2CN(CC(F)(F)F)C2)c1F [Compound 15] | 8.65 |  |  |  |  |  | 
COc1ccc(F)c(CNC(=O)c2cn(Cc3ccc(Cn4cc(F)ccc4=O)nc3)nc2C2COC2)c1F [Compound 6] | 8.58 | 0.661 | 0.653 | 140 | 22.2 | 650 | 
COc1ccc(F)c(CNC(=O)c2cn(Cc3ccc(Cn4ccccc4=O)cc3)nc2C2COC2)c1F [Compound 16] | 9.21 | 1.94 | 1.93 | 136 | 45 | 1140 | bioavailability [2, 3]: 22.1%; Vd [2, 4]: 0.2 L/kg; clearance [2, 4]: 7.3 mL/min/kg; AUC(0-inf) [2, 4]: 4.39 µM·h; AUC(0-t) [2, 4]: 4.37 µM·h; half-life [2, 4]: 35.8 min
COc1ccnc(CNC(=O)c2cn(Cc3ccc(Cn4cc(F)ccc4=O)cc3)nc2C2(C)COC2)c1F [Compound 9] | 8.99 |  |  |  |  |  | 
COc1ccc(F)c(CNC(=O)c2cn(Cc3ccc(Cn4ccccc4=O)cn3)nc2C2COC2)c1F [Compound 5] | 7.73 |  |  |  |  |  | 
COc1ccnc(CNC(=O)c2cn(Cc3ccc(Cn4cc(F)ccc4=O)cc3)nc2C2COC2)c1F [Compound 2] | 8.82 | 0.246 | 0.241 | 26.2 | 15 | 301 | 
COc1ccc(F)c(CNC(=O)c2cn(Cc3ccc(Cn4ccccc4=O)c(F)c3)nc2C2COC2)c1F [Compound 7] | 9.26 |  |  |  |  |  | AUC(0-inf) [2, 5]: 1.93 µM·h; AUC(0-t) [2, 5]: 1.84 µM·h; half-life [2, 5]: 157 min; Tmax [2, 5]: 30 min; Cmax [2, 5]: 813 nM
COc1ccc(F)c(CNC(=O)c2cn(Cc3ccc(Cn4ccccc4=O)cc3)nc2C2CN(S(C)(=O)=O)C2)c1F [Compound 14] | 9.14 |  |  |  |  |  | 
COc1ccc(F)c(CNC(=O)c2cn(Cc3ccc(Cn4ccccc4=O)cc3)nc2C2CN(C(C)=O)C2)c1F [Compound 13] | 9.08 |  |  |  |  |  | 
COc1ccc(F)c(CNC(=O)c2cn(Cc3ccc(Cn4ccccc4=O)cc3)nc2C2CN(C)C2)c1F [Hydrochloride of compound 12] | 8.97 |  |  |  |  |  | 

Now those with a higher pIC50 [1], led by results:

pIC50 [1] | AUC(0-inf) [2, 3] [µM·h] | AUC(0-t) [2, 3] [µM·h] | half-life [2, 3] [min] | Tmax [2, 3] [min] | Cmax [2, 3] [nM] | SMILES | other results
9.58 | 2.12 | 2.11 | 82.2 | 30 | 1760 | COc1ccc(Cl)c(CNC(=O)c2cn(Cc3ccc(Cn4cc(F)ccc4=O)cc3)nc2C2COC2)c1F [Compound 3] | bioavailability [2, 3]: 19.3%; Vd [2, 4]: 0.169 L/kg; clearance [2, 4]: 7.85 mL/min/kg; AUC(0-inf) [2, 4]: 5.5 µM·h; AUC(0-t) [2, 4]: 5.49 µM·h; half-life [2, 4]: 42.8 min
10.28 | 0.246 | 0.237 | 50.8 | 30 | 230 | COc1ccnc(CNC(=O)c2cn(Cc3ccc(Cn4ccccc4=O)cc3)nc2C2COC2)c1F [Compound 17] | 
10.28 | 1.8 | 1.79 | 76.8 | 22.2 | 1550 | COc1ccc(Cl)c(CNC(=O)c2cn(Cc3ccc(Cn4ccccc4=O)cc3)nc2C2COC2)c1F [Compound 4] | bioavailability [2, 3]: 22.7%; Vd [2, 4]: 0.182 L/kg; clearance [2, 4]: 8.26 mL/min/kg; AUC(0-inf) [2, 4]: 3.95 µM·h; AUC(0-t) [2, 4]: 3.94 µM·h; half-life [2, 4]: 36.3 min
9.46 |  |  |  |  |  | COc1ccc(F)c(CNC(=O)c2cn(Cc3ccc(Cn4cc(F)ccc4=O)cc3)nc2C2(C)COC2)c1F [Compound 10] | 
9.57 |  |  |  |  |  | COc1ccc(F)c(CNC(=O)c2cn(Cc3ccc(Cn4ccccc4=O)cc3)nc2C2CNC2)c1F [Hydrochloride of compound 11] | 
